Results taken from PMC6646883 (Biomacromolecules, 2019).
Where no end group is shown, it is not given here.

assay type: physicochemical; settings: methylene blue assay, dilute solution 0.1 mg/mL in 1x PBS pH 7.4 with Zn(OAc)2, Cys trigger, rt, absorbance at 750 nm, quadruplicate, t1/2=ln(2)/slope

Substance	H2S release half-life (pseudo-first-order)
IAVEEEE [APA 1]	31 min
IAVEEEE [APA 3]	19 min
IAVEEEE [APA 5]	13 min
